From patent US20120171126A1, “NOVEL [3,2-c] HETEROARYL STEROIDS AS GLUCOCORTICOID RECEPTOR AGONISTS COMPOSITIONS AND USES THEREOF” (priority 2009, published 2012)

Tested on: IL-8
Experiment: Glucocorticoid transrepression assay, IL-8 inhibition (TR)
Type: cell-based
Details: Homo sapiens, Table 1, NCl-H292 cells, TNFα 10 ng/ml; for Emax: read-out: IL-8 inhibition (TR) Emax % inhibition
Protocol: Human Lung epithelial cell line NCl-H292 cells were dissociated from stock flask using 0.05% trypsin/0.53 mM EDTA. Cells were suspended in complete medium and counted. Cells were plated in 96-well flat-bottom plates at 20K cells /well in 0.2 ml/well. Plates were incubated for 24-48 hours until cells were between 75-90% confluent. Medium was aspirated and replaced with medium containing various concentrations of steroids or antagonists. After 1 hour incubation at 37°, TNFα (10 ng/ml final concentration in 0.2 ml) was added and the cells incubated overnight. Control wells with and without TNF were included on each plate, as well as wells with TNF in addition to a maximum (10 μM) concentration of dexamethasone. The cell culture medium was sampled and IL-6 and IL-8 cytokine production was measured using the MSD Multi-Spot immunoassay.

SMILES	Emax [%]	IC50 [nM]
Cn1cnnc1SCC(=O)[C@@]1(O)CCC2C3CCC4=Cc5c(cnn5-c5ccccn5)CC4(C)C3[C@@H](O)CC21C (some centres unmarked) [Compound 41]	< 60	–
CC12Cc3cnn(-c4ccccn4)c3C=C1CCC1C2[C@@H](O)CC2(C)C1CC[C@]2(O)C(=O)CSc1nc2cccnc2s1 (some centres unmarked) [Compound 42]	70 to 80	66 to 400
CC12Cc3cnn(-c4ccccn4)c3C=C1CCC1C2[C@@H](O)CC2(C)C1CC[C@]2(O)C(=O)CSc1nc2ncccc2o1 (some centres unmarked) [Compound 43]	70 to 80	21 to 65
CC12Cc3cnn(-c4ccccn4)c3C=C1CCC1C2[C@@H](O)CC2(C)C1CC[C@]2(O)C(=O)CSc1cnc2ccccc2n1 (some centres unmarked) [Compound 44]	< 60	401 to 1000
Cc1ccnc(SCC(=O)[C@@]2(O)CCC3C4CCC5=Cc6c(cnn6-c6ccccn6)CC5(C)C4[C@@H](O)CC32C)n1 (some centres unmarked) [Compound 45]	> 80	21 to 65
CC12Cc3cnn(-c4ccccn4)c3C=C1CCC1C2[C@@H](O)CC2(C)C1CC[C@]2(O)C(=O)CSc1ccccn1 (some centres unmarked) [Compound 46]	70 to 80	66 to 400
Cc1cccc(SCC(=O)[C@@]2(O)CCC3C4CCC5=Cc6c(cnn6-c6ccccn6)CC5(C)C4[C@@H](O)CC32C)n1 (some centres unmarked) [Compound 47]	> 80	66 to 400
Cn1c(SCC(=O)[C@@]2(O)CCC3C4CCC5=Cc6c(cnn6CCC#N)CC5(C)C4[C@@H](O)CC32C)nc2ccccc21 (some centres unmarked) [Compound 48]	< 60	66 to 400
CC12Cc3cnn(CCC#N)c3C=C1CCC1C2[C@@H](O)CC2(C)C1CC[C@]2(O)C(=O)CSc1nc2ccccc2s1 (some centres unmarked) [Compound 49]	< 60	–
CC12Cc3cnn(CCC#N)c3C=C1CCC1C2[C@@H](O)CC2(C)C1CC[C@]2(O)C(=O)CSc1nc2ccccc2o1 (some centres unmarked) [Compound 50]	70 to 80	66 to 400
CC12Cc3cnn(CCC#N)c3C=C1CCC1C2[C@@H](O)CC2(C)C1CC[C@]2(O)C(=O)CSc1ccc2ccccc2n1 (some centres unmarked) [Compound 51]	< 60	–
CC12Cc3cnn(CCC#N)c3C=C1CCC1C2[C@@H](O)CC2(C)C1CC[C@]2(O)C(=O)CSc1nc2ccccc2[nH]1 (some centres unmarked) [Compound 52]	< 60	401 to 1000
CC12Cc3cnn(CCC#N)c3C=C1CCC1C2[C@@H](O)CC2(C)C1CC[C@]2(O)C(=O)CSc1ncccn1 (some centres unmarked) [Compound 54]	< 60	401 to 1000
Cn1cnnc1SCC(=O)[C@@]1(O)CCC2C3CCC4=Cc5c(cnn5CCC#N)CC4(C)C3[C@@H](O)CC21C (some centres unmarked) [Compound 55]	< 60	–
CC12Cc3cnn(CCC#N)c3C=C1CCC1C2[C@@H](O)CC2(C)C1CC[C@]2(O)C(=O)CSc1nc2cccnc2s1 (some centres unmarked) [Compound 56]	< 60	–
CC12Cc3cnn(CCC#N)c3C=C1CCC1C2[C@@H](O)CC2(C)C1CC[C@]2(O)C(=O)CSc1cnc2ccccc2n1 (some centres unmarked) [Compound 58]	< 60	–
Cc1ccnc(SCC(=O)[C@@]2(O)CCC3C4CCC5=Cc6c(cnn6CCC#N)CC5(C)C4[C@@H](O)CC32C)n1 (some centres unmarked) [Compound 59]	60 to 70	66 to 400
Cc1cccc(SCC(=O)[C@@]2(O)CCC3C4CCC5=Cc6c(cnn6CCC#N)CC5(C)C4[C@@H](O)CC32C)n1 (some centres unmarked) [Compound 61]	70 to 80	66 to 400
CC12Cc3cnn(C(C)(C)C)c3C=C1CCC1C2[C@@H](O)CC2(C)C1CC[C@]2(O)C(=O)CSc1nc2ccccc2s1 (some centres unmarked) [Compound 62]	< 60	–
Cn1c(SCC(=O)[C@@]2(O)CCC3C4CCC5=Cc6c(cnn6C(C)(C)C)CC5(C)C4[C@@H](O)CC32C)nc2ccccc21 (some centres unmarked) [Compound 63]	< 60	–
CC12Cc3cnn(C(C)(C)C)c3C=C1CCC1C2[C@@H](O)CC2(C)C1CC[C@]2(O)C(=O)CSc1nc2cccnc2s1 (some centres unmarked) [Compound 64]	< 60	–
CC12Cc3cnn(C(C)(C)C)c3C=C1CCC1C2[C@@H](O)CC2(C)C1CC[C@]2(O)C(=O)CSc1nc2ncccc2o1 (some centres unmarked) [Compound 65]	< 60	–
CC12Cc3cnn(C(C)(C)C)c3C=C1CCC1C2[C@@H](O)CC2(C)C1CC[C@]2(O)C(=O)CSc1ccccn1 (some centres unmarked) [Compound 66]	< 60	–
